Tests used:
Type in all cases: biochemical
Itk = biological target: T1, Itk (Homo sapiens, UniProt Q08881); assay: ITK Inhibition Assay (Radiometric), radioactive-phosphate incorporation; conditions: enzyme inhibition data (Ki), Table 11; radiometric or UV assay not stated
T1 sequence (Q08881 1-620): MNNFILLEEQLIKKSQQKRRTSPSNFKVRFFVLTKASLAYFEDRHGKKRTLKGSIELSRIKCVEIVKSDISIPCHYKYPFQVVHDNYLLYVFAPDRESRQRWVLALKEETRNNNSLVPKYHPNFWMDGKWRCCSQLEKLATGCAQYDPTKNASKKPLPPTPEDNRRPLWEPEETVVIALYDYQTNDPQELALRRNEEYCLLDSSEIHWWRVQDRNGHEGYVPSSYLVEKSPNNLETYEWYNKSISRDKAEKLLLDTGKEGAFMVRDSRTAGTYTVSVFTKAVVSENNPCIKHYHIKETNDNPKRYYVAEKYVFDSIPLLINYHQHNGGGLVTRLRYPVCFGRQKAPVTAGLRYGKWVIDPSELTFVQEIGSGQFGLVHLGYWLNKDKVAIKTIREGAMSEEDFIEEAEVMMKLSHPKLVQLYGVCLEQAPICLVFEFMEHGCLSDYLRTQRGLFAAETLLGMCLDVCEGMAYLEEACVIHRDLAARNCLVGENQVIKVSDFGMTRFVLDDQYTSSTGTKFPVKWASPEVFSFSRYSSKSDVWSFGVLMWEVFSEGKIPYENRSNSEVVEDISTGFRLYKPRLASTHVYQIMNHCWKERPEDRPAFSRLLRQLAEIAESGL
Protocol: Assays are carried out in a mixture of 20 mM MOPS (pH 7.0), 10 mM MgCl2, 0.1% BSA and 1 mM DTT. Final substrate concentrations in the assay are 7.5 μM [γ-33P]ATP (400 mCi 33P ATP/mmol ATP, Amersham Pharmacia Biotech/Sigma Chemicals) and 3 μM peptide (SAM68 protein D332-443). Assays are carried out at 25° C. in the presence of 50 nM Itk. An assay stock buffer solution is prepared containing all of the reagents listed above, with the exception of ATP and the test compound of interest. 50 μL of the stock solution is placed in a 96 well plate followed by addition of 2 μL of DMSO stock containing serial dilutions of the test compound (typically starting from a final concentration of 50 μM with 2-fold serial dilutions) in duplicate (final DMSO concentration 2%). The plate is pre-incubated for 10 minutes at 25° C. and the reaction initiated by addition of 50 μL [γ-33P]ATP (final concentration 7.5 μM).
The reaction is stopped after 10 minutes by the addition of […] 0.2M phosphoric acid+0.01% TWEEN 20. A multiscreen phosphocellulose filter 96-well plate (Millipore, Cat no. MAPHN0B50) is pretreated with 100 μL 0.2M phosphoric acid +0.01% TWEEN 20 prior to the addition of […] of the stopped assay mixture. The plate is washed with 4×200 μL 0.2M phosphoric acid+0.01% TWEEN 20. After drying, 30 μL Optiphase ‘SuperMix’ liquid scintillation cocktail (Perkin Elmer) is added to the well prior to scintillation counting (1450 Microbeta Liquid Scintillation Counter, Wallac).
Ki(app) data are calculated from non-linear regression analysis of the initial rate data using the Prism software package (GraphPad Prism version 3.0cx for Macintosh, GraphPad Software, San Diego Calif., USA).

JAK3 = biological target: T2, JAK3 (Homo sapiens, UniProt P52333); assay: JAK3 Inhibition Assay, 33P incorporation; conditions: enzyme inhibition data (Ki), Table 11
T2 sequence (P52333 1-1124): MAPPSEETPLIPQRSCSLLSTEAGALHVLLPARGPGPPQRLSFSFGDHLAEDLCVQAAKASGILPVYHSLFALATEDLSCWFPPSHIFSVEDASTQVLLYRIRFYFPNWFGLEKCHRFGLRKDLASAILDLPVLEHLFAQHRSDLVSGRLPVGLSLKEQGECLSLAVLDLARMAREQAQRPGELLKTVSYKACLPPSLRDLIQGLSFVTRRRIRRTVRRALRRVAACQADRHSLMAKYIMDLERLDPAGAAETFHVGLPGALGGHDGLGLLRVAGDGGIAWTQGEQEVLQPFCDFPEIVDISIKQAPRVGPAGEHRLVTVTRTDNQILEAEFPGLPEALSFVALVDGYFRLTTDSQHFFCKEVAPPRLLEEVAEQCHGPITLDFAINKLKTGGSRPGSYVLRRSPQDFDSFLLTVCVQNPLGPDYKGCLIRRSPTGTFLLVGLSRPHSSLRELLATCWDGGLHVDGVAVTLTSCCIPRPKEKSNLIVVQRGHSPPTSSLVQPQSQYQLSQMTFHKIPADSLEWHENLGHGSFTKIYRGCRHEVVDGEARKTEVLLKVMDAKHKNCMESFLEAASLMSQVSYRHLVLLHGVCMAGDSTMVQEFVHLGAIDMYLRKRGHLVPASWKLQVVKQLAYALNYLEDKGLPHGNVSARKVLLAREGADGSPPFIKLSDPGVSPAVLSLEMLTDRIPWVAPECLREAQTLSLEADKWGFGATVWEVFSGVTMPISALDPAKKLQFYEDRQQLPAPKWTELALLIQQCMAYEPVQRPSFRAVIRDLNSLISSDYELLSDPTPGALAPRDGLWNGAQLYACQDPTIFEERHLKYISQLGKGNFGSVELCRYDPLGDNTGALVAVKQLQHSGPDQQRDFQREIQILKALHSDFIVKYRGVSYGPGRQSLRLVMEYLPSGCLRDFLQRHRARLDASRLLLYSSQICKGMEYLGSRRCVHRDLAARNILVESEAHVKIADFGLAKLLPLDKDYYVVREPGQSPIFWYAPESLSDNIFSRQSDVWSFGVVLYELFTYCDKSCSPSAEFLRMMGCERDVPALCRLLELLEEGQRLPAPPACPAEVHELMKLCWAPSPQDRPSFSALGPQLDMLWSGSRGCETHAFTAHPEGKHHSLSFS
Protocol: Reactions are carried out in a kinase buffer containing 100 mM HEPES (pH 7.4), 1 mM DTT, 10 mM MgCl2, 25 mM NaCl, and 0.01% BSA. Substrate concentrations in the assay are 5 μM ATP (200 uCi/μmole ATP) and 1 μM poly(Glu)4Tyr. Reactions are carried out at 25° C. and 1 nM JAK3. To each well of a 96 well polycarbonate plate is added 1.5 μl of a candidate JAK3 inhibitor along with 50 μl of kinase buffer containing 2 μM poly(Glu)4Tyr and 10 μM ATP. This is then mixed and 50 μl of kinase buffer containing 2 nM JAK3 enzyme is added to start the reaction. After 20 minutes at room temperature (25 C), the reaction is stopped with 50 μl of 20% trichloroacetic acid (TCA) that also contained 0.4 mM ATP. The entire contents of each well are then transferred to a 96 well glass fiber filter plate using a TomTek Cell Harvester. After washing, 60 μl of scintillation fluid is added and ^33P incorporation detected on a Perkin Elmer TopCount.

c-Met = c-Met (Homo sapiens, UniProt P08581); assay: c-Met Inhibition Assay, coupled enzyme system; conditions: enzyme inhibition data (Ki), Table 11
Protocol: Compounds are screened for their ability to inhibit c-Met kinase activity using a standard coupled enzyme system (Fox et al., Protein Sci. 1998, 7, 2249). Reactions are carried out in a solution containing 100 mM HEPES (pH 7.5), 10 mM MgCl2, 25 mM NaCl, 300 μM NADH, 1 mM DTT, and 1.5% DMSO. Final substrate concentrations in the assay are 200 μM ATP (Sigma Chemicals, St Louis, Mo.) and 10 μM polyGluTyr (Sigma Chemical Company, St. Louis). Reactions are carried out at 30° C. and 80 nM c-Met. Final concentrations of the components of the coupled enzyme system are 2.5 mM phosphoenolpyruvate, 300 μM NADH, 30 μg/ml pyruvate kinase and 10 μg/ml lactate dehydrogenase.
An assay stock buffer solution is prepared containing all of the reagents listed above with the exception of ATP and a test compound of the present invention. The assay stock buffer solution (175 μl) is incubated in a 96 well plate with 5 μl of the test compound of the present invention at final concentrations spanning 0.006 μM to 12.5 μM at 30° C. for 10 minutes. Typically, a 12-point titration is conducted by preparing serial dilutions (from 10 mM compound stocks) with DMSO of the test compounds of the present invention in daughter plates. The reaction is initiated by the addition of 20 μl of ATP (final concentration 200 μM). Rates of reaction are obtained using a Molecular Devices Spectramax plate reader (Sunnyvale, Calif.) over 10 minutes at 30° C. The Ki values are determined from the rate data as a function of inhibitor concentration.

Chain of c-Met (P08581 25-1390): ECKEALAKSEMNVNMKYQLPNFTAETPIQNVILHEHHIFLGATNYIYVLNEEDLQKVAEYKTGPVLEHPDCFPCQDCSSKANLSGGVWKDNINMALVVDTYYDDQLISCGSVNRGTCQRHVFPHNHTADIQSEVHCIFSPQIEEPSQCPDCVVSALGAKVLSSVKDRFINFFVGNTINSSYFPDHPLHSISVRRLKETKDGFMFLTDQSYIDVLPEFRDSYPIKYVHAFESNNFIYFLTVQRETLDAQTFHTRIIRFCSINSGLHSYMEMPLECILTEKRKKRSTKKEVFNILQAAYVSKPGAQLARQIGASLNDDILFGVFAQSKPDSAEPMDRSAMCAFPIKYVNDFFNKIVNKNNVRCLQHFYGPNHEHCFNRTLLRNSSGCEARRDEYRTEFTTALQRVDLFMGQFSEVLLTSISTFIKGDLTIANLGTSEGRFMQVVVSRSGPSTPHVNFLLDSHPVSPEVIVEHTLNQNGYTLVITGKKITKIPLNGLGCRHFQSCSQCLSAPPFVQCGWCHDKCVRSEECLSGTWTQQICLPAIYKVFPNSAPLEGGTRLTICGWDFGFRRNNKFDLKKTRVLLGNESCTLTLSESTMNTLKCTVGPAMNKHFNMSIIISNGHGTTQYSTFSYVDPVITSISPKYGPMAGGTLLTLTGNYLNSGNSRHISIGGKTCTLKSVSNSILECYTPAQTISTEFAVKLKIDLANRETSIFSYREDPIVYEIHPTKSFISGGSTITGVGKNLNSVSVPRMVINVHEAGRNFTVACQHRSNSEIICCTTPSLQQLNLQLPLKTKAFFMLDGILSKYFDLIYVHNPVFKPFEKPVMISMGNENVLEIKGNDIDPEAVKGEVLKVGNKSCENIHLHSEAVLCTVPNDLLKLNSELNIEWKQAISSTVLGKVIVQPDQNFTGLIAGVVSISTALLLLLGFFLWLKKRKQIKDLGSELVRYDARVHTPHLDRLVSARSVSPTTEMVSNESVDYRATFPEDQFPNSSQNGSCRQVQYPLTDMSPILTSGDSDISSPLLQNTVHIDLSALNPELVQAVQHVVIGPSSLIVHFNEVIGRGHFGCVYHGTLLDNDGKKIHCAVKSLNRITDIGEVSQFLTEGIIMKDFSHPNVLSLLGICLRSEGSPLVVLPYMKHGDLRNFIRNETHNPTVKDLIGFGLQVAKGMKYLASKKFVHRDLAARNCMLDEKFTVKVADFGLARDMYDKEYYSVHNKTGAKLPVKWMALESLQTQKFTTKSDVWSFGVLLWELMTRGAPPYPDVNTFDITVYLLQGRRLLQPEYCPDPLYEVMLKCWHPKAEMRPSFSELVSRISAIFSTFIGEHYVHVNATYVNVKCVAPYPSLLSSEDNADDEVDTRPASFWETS

SMILES	Ki (Itk) [nM]	Ki (JAK3) [nM]	Ki (c-Met) [nM]
Cc1cnc2c(-c3cc(NC4CCN(C)CC4)ncn3)c(N)nn2c1 [Compound V-284]	500 to 5000	500 to 5000	< 500
Nc1nn2cc(CCCN3CC[C@H](O)C3)cnc2c1-c1ccccn1 [Compound V-325]	500 to 5000	> 5000	500 to 5000
Nc1nn2cc(-c3cccc(C(=O)N4CCC(N5CCCC5)CC4)n3)cnc2c1-c1ccccn1 [Compound V-121]	500 to 5000	> 5000	–
CN1CCCN(C(=O)c2cccc(-c3cnc4c(-c5ccccn5)c(N)nn4c3)n2)CC1 [Compound V-105]	500 to 5000	> 5000	< 500
CN(CC1OCCO1)C(=O)c1cccc(-c2cnc3c(-c4ccccn4)c(N)nn3c2)n1 [Compound V-142]	500 to 5000	500 to 5000	< 500
COc1ccc(-c2cnc3c(-c4ccccc4)c(N)nn3c2)cc1 [Compound V-186]	< 500	> 5000	500 to 5000
CCN(CCN)c1ccc(-c2cnc3c(-c4ccccn4)c(N)nn3c2)cn1 [Compound V-157]	< 500	> 5000	< 500
Nc1nn2cc(-c3ccnc(N4CCN(Cc5ccccc5)CC4)c3)cnc2c1-c1ccccn1 [Compound V-247]	500 to 5000	> 5000	< 500
CCCCNC(=O)c1cccc(-c2cnc3c(-c4ccccn4)c(N)nn3c2)n1 [Compound V-109]	500 to 5000	> 5000	< 500
COC[C@H](C)Nc1cc(-c2c(N)nn3cc(C)cnc23)ncn1 [Compound V-292]	500 to 5000	500 to 5000	< 500
CCN(C)CCCc1cnc2c(-c3ccccn3)c(N)nn2c1 [Compound V-318]	500 to 5000	> 5000	500 to 5000
Nc1nn2cc(-c3ccc(N4CCOCC4)nc3)cnc2c1-c1ccccn1 [Compound V-144]	500 to 5000	> 5000	< 500
Nc1nn2cc(N3CCCCC3)cnc2c1-c1ccccn1 [Compound V-59]	500 to 5000	> 5000	500 to 5000
CN(C)Cc1ccccc1-c1cnc2c(-c3ccccn3)c(N)nn2c1 [Compound V-23]	500 to 5000	> 5000	500 to 5000
CC(C)N(CCCc1cnc2c(-c3ccccn3)c(N)nn2c1)C(C)C [Compound V-320]	500 to 5000	> 5000	500 to 5000
Nc1nn2cc(-c3cccc(C(=O)N4CCC4)n3)cnc2c1-c1ccccn1 [Compound V-123]	500 to 5000	> 5000	< 500
Nc1nn2cc(CCCN3CCNCC3)cnc2c1-c1ccccn1 [Compound V-314]	500 to 5000	> 5000	500 to 5000
Nc1nn2cc(-c3ccc(N4CCSCC4)nc3)cnc2c1-c1ccccn1 [Compound V-170]	500 to 5000	> 5000	500 to 5000
COc1ccc(-c2cn3nc(N)c(-c4ccccn4)c3nc2C(F)(F)F)cc1 [Compound V-218]	500 to 5000	–	–
Nc1nn2cc(-c3ccc(C=O)cc3)cnc2c1-c1ccccn1 [Compound V-193]	< 500	–	–
Cc1ccn2nc(N)c(-c3ccccc3)c2n1 [Compound V-1]	–	> 5000	–
Cc1cnc2c(-c3cc(N[C@@H](C)c4ccccc4)ncn3)c(N)nn2c1 [Compound V-301]	500 to 5000	–	500 to 5000
N#Cc1ccc(-c2cnc3c(-c4ccccn4)c(N)nn3c2)cc1 [Compound V-196]	< 500	–	–
Nc1nn2cc(-c3ccc(CCl)cc3)cnc2c1-c1ccccn1 [Compound V-203]	< 500	–	–
Cc1cnc2c(-c3cc(N[C@H](C)c4ccccc4)ncn3)c(N)nn2c1 [Compound V-300]	500 to 5000	–	< 500
CCN(CC)C(=O)C1CCCN(c2cc(-c3c(N)nn4cc(C)cnc34)ncn2)C1 (centres unmarked) [Compound V-338]	500 to 5000	–	< 500
Nc1nn2cc(-c3ccc(N4CCCC4)nc3)cnc2c1-c1ccccn1 [Compound V-143]	500 to 5000	> 5000	–
Nc1nn2cc(-c3cccc(CCl)c3)cnc2c1-c1ccccn1 [Compound V-210]	< 500	–	–
COc1ccc(-c2cnc3c(-c4ccc(C)cn4)c(N)nn3c2)cc1 [Compound V-220]	500 to 5000	–	–

— US7528138B2, “Pyrazolo[1,5-a]pyrimidines useful as inhibitors of protein kinases” (Vertex Pharmaceuticals Incorporated, priority 2004, dated 2009)
